From patent publication US20170049822A1, “METHODS OF ENHANCING STEM CELL ENGRAFTMENT” (TEXAS HEART INSTITUTE, priority 2014, published 2017)

Legend:
ischemic hindlimbs [1] = experiment: Live microscopy / quantitative confocal analysis of arteriolar growth in ischemic hindlimbs; format: in vivo, mice; settings: ischemic legs
Text: The outcomes of local delivery of CPGI2, a prostacyclin analogue, to ischemic hindlimbs were investigated. More specifically, arteriolar growth in ischemic hindlimbs was monitored in conjunction with CPGI2 treatment. Dynamic changes in the microvascular morphology of the limb region distal to the ligation where CPGI2 was applied were microscopically examined in live mice. At 7 days after treatment, structural remodeling at the arteriolar level in the CPGI2 group was more distinct than in the saline group, as shown in FIG. 3. […] More intra-arteriolar connections (solid line arrows, as shown in FIG. 3) and corkscrew extensions of arterioles (dashed line arrows, as shown in FIG. 3) developed in CPGI2-treated versus saline-treated groups. Arteriolar networks were identified by their branching out from a large feeder femoral artery or from a saphenous branch of descending genicular artery.

ischemic hindlimbs [2] = experiment: Quantitative micro-CT of microvascular network in ischemic hindlimbs; format: in vivo, mice
Text: The outcomes of local delivery of CPGI2, a prostacyclin analogue, to ischemic hindlimbs were investigated. More specifically, remodeling of microvascular network in ischemic hindlimbs was monitored in conjunction with CPGI2 treatment. High-definition, volumetric, quantitative micro-CT was used to assess the overall microvascular geometry of ischemic and contralateral non-ischemic legs 14 days after femoral occlusion and constant local administration of CPGI2 or saline. […] Similar global morphometric analyses were used to evaluate contralateral non-ischemic legs. […] To further verify the pro-arteriogenic effect of CPGI2, a quantitative histogram was generated by using micro-CT to illustrate frequency and distribution of blood vessel size in CPGI2-treated legs in comparison to saline-treated or contralateral non-ischemic legs. […] Referring to FIG. 4B, the red dashed circles show more vasculature in the thigh muscle where CPGI2 was administered as compared to the similar area where saline was administered. […] CPGI2 treatment positively affects remodeling of the microvascular network in ischemic hindlimbs. Quantitative micro-CT analyses indicate CPGI2 augments vascular growth.

ischemic hindlimbs [3] = experiment: Laser Doppler perfusion of ischemic hindlimbs with local CPGI2 delivery by osmotic pump; format: in vivo, mice; settings: local delivery to ischemic thigh muscle, n=5/group
Experimental: Serial measurements of perfusion were performed with the use of a laser Doppler image device (Perimed AB, […]) at 24 hours and 3, 5, 7, and 14 days after cell injections in the cell-treated groups and at the same time points in iloprost-treated mice. Perfusion was expressed as the perfusion ratio in the ischemic compared to the contralateral, non-manipulated leg. The outcomes of local delivery of CPGI2, a prostacyclin analogue, to ischemic hindlimbs were investigated. More specifically, blood perfusion in ischemic hindlimbs was monitored in conjunction with CPGI2 treatment. An osmotic pump was implanted and a catheter was used to deliver the prostacyclin analogue CPGI2 or saline (vehicle) to the surface of the ischemic anterior thigh muscle for up to 14 days.

[4] = in vivo; cited from earlier work
[5] = test system: hMSCs in ischemic hindlimbs of NOD/SCID mice; experiment: In vivo bioluminescence imaging of hMSC retention with daily SEE drug treatment; settings: 3 days, hMSCs preconditioned 100 nM 4 days
Experimental: The ability of stem cells to engraft in ischemic tissues in the presence of SEE was investigated. More specifically, the ability of hMSCs to engraft in ischemic hindlimbs in the presence of different SEEs was investigated. The studies were conducted in as described in Example 5, unless otherwise specified. To investigate the signaling pathways involved in prostacyclin-induced cell retention after hindlimb ischemia, hMSCs were preconditioned with either prostacyclin receptor agonist Cicaprost (100 nM) or PPARβ/δ agonist GW501516 (100 nM) for 4 days in vitro. Cells were then injected into the gastrocnemius of ischemic hindlimbs of NOD/SCID mice. After cell injection, mice were either treated daily with Cicaprost (oral gavage, LD=0.3 mg/kg/day; HD=1 mg/kg/day) or GW501516 (intra peritoneal (IP), 5 mg/kg/day). LD=low dose and HD=high dose. In vivo BLI was performed on cell-drug treated mice.

CCCCC[C@H](O)/C=C/[C@@H]1[C@H]2C/C(=C/CCCC(=O)O)C[C@H]2C[C@H]1O [CPGI2, Carbaprostacyclin]
structural remodeling at the arteriolar level versus saline group (ischemic hindlimbs [1]; 7 days after treatment): more distinct
number of microvessels ranging in size from 15-50 m in diameter (ischemic hindlimbs [1]; quantitative confocal analysis): 38.00±2.41 /high-power field [HPF]
distance between vessels (ischemic hindlimbs [2]; ischemic legs, 14 days): 6.60±0.52 mm
vascular volume (ischemic hindlimbs [2]; ischemic legs, 14 days after femoral occlusion, constant local administration): 41.28±2.22 mm^3
small vessels, vessel diameter bins 40-60 μm, relative to saline-treated ischemic legs (ischemic hindlimbs [2]; micro-CT histogram, ischemic legs): significant increase
morphologic variables of contralateral non-ischemic legs versus saline-treated (ischemic hindlimbs [2]; non-ischemic legs, 14 days): No significant differences
blood flow recovery (ischemic hindlimbs [3]; 7 days, perfusion ischemic vs contralateral leg): 58.80±5.74%
blood flow recovery (ischemic hindlimbs [3]; 14 days): 88.40±8.71%

CCCCC[C@H](O)/C=C/[C@@H]1[C@H]2C/C(=C/CCCC(=O)O)O[C@H]2C[C@H]1O [PGI2, prostacyclin]
circulating half-life [4]: 1 to 2 min

CCC#CC[C@H](C)[C@H](O)C#C[C@@H]1[C@H]2C/C(=C/COCC(=O)O)C[C@H]2C[C@H]1O [Cicaprost]
bioluminescent intensity (hMSC retention) versus no drug treatment ([5]; oral gavage daily 0.3 or 1 mg/kg/day): markedly higher

Cc1cc(SCc2sc(-c3ccc(C(F)(F)F)cc3)nc2C)ccc1OCC(=O)O [GW501516]
bioluminescent intensity (hMSC retention) versus no drug treatment ([5]; intra peritoneal 5 mg/kg/day): markedly higher
